According to PMC10447463, “Data-mining unveils structure–property–activity correlation of viral infectivity enhancing self-assembling peptides” (Nature Communications, 2023):
Read-outs that look alike come from different tables or passages of the source.

Key:
[1] = type: physicochemical; details: for ThT Cat. / ThT-Fluorescence (categorical): ThT-active if fluorescence at least twice the control; for Rel. ThT: n-fold ThT fluorescence vs control (PBS, 10% DMSO), 4 µL 1 mg/mL fibrils + 20 µL 50 µM ThT, 15 min RT, ex 440 / em 488 nm, triplicate
Outline: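 Preformed peptide fibrils (1 mg/mL) mixed with 50 µM ThT in PBS, 15 min at RT, fluorescence ex 440/em 488 nm versus PBS blank, triplicates. Zeta potential: peptides at 1 mg/mL in PBS pH 7.4, aged 1 d at RT, diluted in 1 mM KCl, Smoluchowski from electrophoretic mobility.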

[2] = Conversion rate (CR) assay with fluorescamine; type: physicochemical; parameters: key to CR: % = 100−100×filtrate/original fluorescence intensity
Description: For ATR FT–IR spectroscopy measurements, 200 µL of the respective 1 mg/mL PNF solution was lyophilized and the resulting powder used for measurement. All spectra were recorded on a Bruker Tensor 27 spectrometer with a diamond crystal as ATR element (PIKE MiracleTM, spectral resolution 2 cm^-1). Every sample was measured with 64 scans. Data were analyzed with OriginLab software and calculation of β–sheet content was conducted according to a previous report. TEM. For TEM measurements 5 µL of PNF fibrils (1 mg/mL) were placed on copper grids coated with carbon and formvar layer (300 mesh, Plano GmbH). After 10 min incubation time, the grids were staining with 4% uranyl acetate solution for 2.5 min and washed with water. Measurements were performed on a Jeol 1400 electron microscope with 120 kV acceleration voltage. CR Assay. For the determination of the amount of peptide monomer converting into nanostructures the amine reactive dye fluorescamine was used analogous to a previous reported protocol. Briefly, 100 µL of the preformed PNF solution was centrifuged in a Vivaspin 500 tube (3 kDa MWCO) to separate fibers from free peptide monomer (16200 x g, 4 °C, 45 min). The filtrate and 100 μL of the non-filtered PNF sample were lyophilized and dissolved in 30 μL DMSO. 10 μL of the filtrate and non-filtered DMSO samples were submitted in a black UV Star® 384 microliter well–plates (Greiner bio–one) and 3 μL of the fluorescamine solution (10 mg/mL, DMSO) was added to measure the fluorescence enhancement. After 20 min of incubation at RT, fluorescence was recorded on an Infinite® M1000 PRO microplate reader (Tecan) at λem = 470 nm upon excitation at λex = 365 nm with 10 nm bandwidths and multiple reads per well (3×3). Measurements were repeated in triplicates and averaged with standard deviation. All values were calculated as n-fold fluorescence enhancement (DMSO only as a reference was set to 1). The conversion rate CR was defined according to the equation Eq. (3).3 CR=100−100×fluorescenceintensityfiltrate/fluorescenceintensityoriginal[%]

[3] = ThT fluorescence category, 1 if Rel. ThT >2
[4] = Fig. S7 panel B, conversion rate, fluorescamine assay
[5] = conversion rate, fluorescamine assay
[6] = conversion of monomer to nanostructures, 3 kDa MWCO filtration, fluorescamine, ex 365 / em 470 nm, triplicate

Substance | Tht category (> 2 to blank = +) ([1]; Fig S10 panel D) | ThT Cat. ([1]; Fig S10 panel E) | ThT Cat, ([1]; ThT category, 1 if Rel. ThT >2) | ThT Cat. [1, 3] | ThT Cat. / ThT-Fluorescence (categorical) [1] | CR / % [2, 4] [%] | CR [2, 5] | Tht category (> 2 to blank = +) ([1]; FigS12 panel A) | ThT Cat, ([1]; FigS12 panel B) | ThT Cat. ([1]; ThT category, 1 if Rel. ThT >2) | Rel. ThT [1] | CR / % [2, 6] [%]
CKIKIQI | 1 (ThT. Cat is 1, if Rel. ThT >2) | 1 (ThT. Cat is 1, if Rel. ThT >2) | 1 (ThT. Cat is 1, if Rel. ThT >2) | 1 (ThT. Cat is 1, if Rel. ThT >2) | 1 (ThT. Cat is 1, if Rel. ThT >2) | 54 | 54 | – | – | – | – | –
KIKIQIII | 1 (ThT. Cat is 1, if Rel. ThT >2) | 1 (ThT. Cat is 1, if Rel. ThT >2) | 1 (ThT. Cat is 1, if Rel. ThT >2) | 1 (ThT. Cat is 1, if Rel. ThT >2) | 1 (ThT. Cat is 1, if Rel. ThT >2) | 87 | 87 | – | – | – | – | –
CKAKAQA | 0 (ThT-inactive (N-Fold <2)) | 0 (ThT-inactive (N-Fold <2)) | 0 (ThT-inactive (N-Fold <2)) | 0 (ThT-inactive (N-Fold <2)) | 0 (ThT-inactive (N-Fold <2)) | 44 | 44 | 0 (ThT-inactive (N-Fold <2)) | 0 (ThT-inactive (N-Fold <2)) | – | – | –
CKIKQIINMWQ | 1 (ThT. Cat is 1, if Rel. ThT >2) | 1 (ThT. Cat is 1, if Rel. ThT >2) | 1 (ThT. Cat is 1, if Rel. ThT >2) | 1 (ThT. Cat is 1, if Rel. ThT >2) | 1 (ThT. Cat is 1, if Rel. ThT >2) | 50 | 50 | – | – | – | – | –
QCKAKAQANMWQ | 0 (ThT-inactive (N-Fold <2)) | 0 (ThT-inactive (N-Fold <2)) | 0 (ThT-inactive (N-Fold <2)) | – | 0 (ThT-inactive (N-Fold <2)) | 89.3 | 89.28 | 0 (ThT-inactive (N-Fold <2)) | 0 (ThT-inactive (N-Fold <2)) | 0 (ThT-inactive (N-Fold <2)) | 1.5 | 89
EIEIQINM | 0 (ThT-inactive (N-Fold <2)) | 0 (ThT-inactive (N-Fold <2)) | 0 (ThT-inactive (N-Fold <2)) | – | 0 (ThT-inactive (N-Fold <2)) | 78.4 | 78.43 | 0 (ThT-inactive (N-Fold <2)) | 0 (ThT-inactive (N-Fold <2)) | 0 (ThT-inactive (N-Fold <2)) | – | –
CEIEIQINM | 1 (ThT. Cat is 1, if Rel. ThT >2) | 1 (ThT. Cat is 1, if Rel. ThT >2) | 1 (ThT. Cat is 1, if Rel. ThT >2) | 1 (ThT. Cat is 1, if Rel. ThT >2) | 1 (ThT. Cat is 1, if Rel. ThT >2) | 43 | 43 | 1 (ThT. Cat is 1, if Rel. ThT >2) | 1 (ThT. Cat is 1, if Rel. ThT >2) | – | – | –
CKAKAQANM | 0 (ThT-inactive (N-Fold <2)) | 0 (ThT-inactive (N-Fold <2)) | 0 (ThT-inactive (N-Fold <2)) | – | 0 (ThT-inactive (N-Fold <2)) | 47.9 | 47.87 | 0 (ThT-inactive (N-Fold <2)) | 0 (ThT-inactive (N-Fold <2)) | 0 (ThT-inactive (N-Fold <2)) | 1.2 | 48
QCKFKQFFNMWQ | 1 (ThT. Cat is 1, if Rel. ThT >2) | 1 (ThT. Cat is 1, if Rel. ThT >2) | 1 (ThT. Cat is 1, if Rel. ThT >2) | – | 1 (ThT. Cat is 1, if Rel. ThT >2) | 98.7 | 98.72 | – | – | 1 (ThT. Cat is 1, if Rel. ThT >2) | – | –
HHHHKIKIQINMYYYY | 1 (ThT. Cat is 1, if Rel. ThT >2) | 1 (ThT. Cat is 1, if Rel. ThT >2) | 1 (ThT. Cat is 1, if Rel. ThT >2) | 1 (ThT. Cat is 1, if Rel. ThT >2) | 1 (ThT. Cat is 1, if Rel. ThT >2) | 98.4 | 98.42 | – | – | – | – | –
QCKAKAQANM | 0 (ThT-inactive (N-Fold <2)) | 0 (ThT-inactive (N-Fold <2)) | 0 (ThT-inactive (N-Fold <2)) | – | 0 (ThT-inactive (N-Fold <2)) | 55.9 | 55.94 | 0 (ThT-inactive (N-Fold <2)) | 0 (ThT-inactive (N-Fold <2)) | 0 (ThT-inactive (N-Fold <2)) | 1.4 | 56
CSISIQI | 1 (ThT. Cat is 1, if Rel. ThT >2) | 1 (ThT. Cat is 1, if Rel. ThT >2) | 1 (ThT. Cat is 1, if Rel. ThT >2) | 1 (ThT. Cat is 1, if Rel. ThT >2) | 1 (ThT. Cat is 1, if Rel. ThT >2) | 79.3 | 79.31 | 1 (ThT. Cat is 1, if Rel. ThT >2) | 1 (ThT. Cat is 1, if Rel. ThT >2) | – | – | –
RGDKIKIQINM | 1 (ThT. Cat is 1, if Rel. ThT >2) | 1 (ThT. Cat is 1, if Rel. ThT >2) | 1 (ThT. Cat is 1, if Rel. ThT >2) | 1 (ThT. Cat is 1, if Rel. ThT >2) | 1 (ThT. Cat is 1, if Rel. ThT >2) | 60.9 | 60.92 | – | – | – | – | –
HHHHKIKIKIKIWWWW | 1 (ThT. Cat is 1, if Rel. ThT >2) | 1 (ThT. Cat is 1, if Rel. ThT >2) | 1 (ThT. Cat is 1, if Rel. ThT >2) | 1 (ThT. Cat is 1, if Rel. ThT >2) | 1 (ThT. Cat is 1, if Rel. ThT >2) | 96 | 96 | – | – | – | – | –
KFKFQFNM | 0 (ThT-inactive (N-Fold <2)) | 0 (ThT-inactive (N-Fold <2)) | 0 (ThT-inactive (N-Fold <2)) | – | 0 (ThT-inactive (N-Fold <2)) | 94.8 | 94.77 | – | – | 0 (ThT-inactive (N-Fold <2)) | – | –
RGDKIKIQIC | 1 (ThT. Cat is 1, if Rel. ThT >2) | 1 (ThT. Cat is 1, if Rel. ThT >2) | 1 (ThT. Cat is 1, if Rel. ThT >2) | 1 (ThT. Cat is 1, if Rel. ThT >2) | 1 (ThT. Cat is 1, if Rel. ThT >2) | 80 | 80 | – | – | – | – | –
CKIKIQIRGD | 0 (ThT-inactive (N-Fold <2)) | 0 (ThT-inactive (N-Fold <2)) | 0 (ThT-inactive (N-Fold <2)) | 0 (ThT-inactive (N-Fold <2)) | 0 (ThT-inactive (N-Fold <2)) | 91 | 91 | – | – | – | – | –
QCKIKIQINM | 1 (ThT. Cat is 1, if Rel. ThT >2) | 1 (ThT. Cat is 1, if Rel. ThT >2) | 1 (ThT. Cat is 1, if Rel. ThT >2) | – | 1 (ThT. Cat is 1, if Rel. ThT >2) | 89.7 | 89.7 | – | – | 1 (ThT. Cat is 1, if Rel. ThT >2) | – | –
EIEIQINMWQ | 1 (ThT. Cat is 1, if Rel. ThT >2) | 1 (ThT. Cat is 1, if Rel. ThT >2) | 1 (ThT. Cat is 1, if Rel. ThT >2) | – | 1 (ThT. Cat is 1, if Rel. ThT >2) | 89.9 | 89.92 | – | – | 1 (ThT. Cat is 1, if Rel. ThT >2) | – | –
RGDCKFKFQF | 1 (ThT. Cat is 1, if Rel. ThT >2) | 1 (ThT. Cat is 1, if Rel. ThT >2) | 1 (ThT. Cat is 1, if Rel. ThT >2) | 1 (ThT. Cat is 1, if Rel. ThT >2) | 1 (ThT. Cat is 1, if Rel. ThT >2) | 85.5 | 85.47 | – | – | – | – | –
